In PubChem BioAssay AID2060507 (Molecular Pharmacology Branch, DTP, NCI, 2025):
Values belong to the compound of their own block, whether it stands above or below them.

System: 519858-162-T-J1-PDC complex spheroid viability
Assay: Anticancer human tumor 519858-162-T-J1-PDC patient-derived colon adenocarcinoma cell line growth inhibition [GQUAD]
Conditions: for IC50: curve of first compound; for viability, T/C: stronger effect = lower value
In short: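 Multi-cell-type spheroids of tumor cells with HUVEC and mesenchymal stem cells, treated with drug combinations. Concentrations descend in half-log steps from near clinical Cmax, or from 10 microM where Cmax is unknown; viability read-out.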

[1] = second compound 0.0316 µM, first compound 0.0316 µM
[2] = second compound 0.0316 µM, first compound 0.316 µM
[3] = second compound 0.1 µM, first compound 0.0316 µM
[4] = second compound 0.1 µM, first compound 0.316 µM
[5] = second compound 0.316 µM, first compound 0.0316 µM
[6] = second compound 0.316 µM, first compound 0.316 µM
[7] = second compound 1 µM, first compound 0.0316 µM
[8] = second compound 1 µM, first compound 0.316 µM
[9] = second compound 3.16 µM, first compound 0.0316 µM
[10] = second compound 3.16 µM, first compound 0.316 µM
[11] = second compound 10 µM, first compound 0.0316 µM
[12] = second compound 10 µM, first compound 0.316 µM
[13] = second compound 0.0316 µM, first compound 0.1 µM
[14] = second compound 0.0316 µM, first compound 1 µM
[15] = second compound 0.0316 µM, first compound 3.16 µM
[16] = second compound 0.0316 µM, first compound 10 µM
[17] = second compound 0.1 µM, first compound 0.1 µM
[18] = second compound 0.1 µM, first compound 1 µM
[19] = second compound 0.1 µM, first compound 3.16 µM
[20] = second compound 0.1 µM, first compound 10 µM
[21] = second compound 0.316 µM, first compound 0.1 µM
[22] = second compound 0.316 µM, first compound 1 µM
[23] = second compound 0.316 µM, first compound 3.16 µM
[24] = second compound 0.316 µM, first compound 10 µM
[25] = second compound 1 µM, first compound 0.1 µM
[26] = second compound 1 µM, first compound 1 µM
[27] = second compound 1 µM, first compound 3.16 µM
[28] = second compound 1 µM, first compound 10 µM
[29] = second compound 3.16 µM, first compound 0.1 µM
[30] = second compound 3.16 µM, first compound 1 µM
[31] = second compound 3.16 µM, first compound 3.16 µM
[32] = second compound 3.16 µM, first compound 10 µM
[33] = second compound 10 µM, first compound 0.1 µM
[34] = second compound 10 µM, first compound 1 µM
[35] = second compound 10 µM, first compound 3.16 µM
[36] = second compound 10 µM, first compound 10 µM
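Note: spheroids exposed to compounds for 7 days.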
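Throughout, for viability, T/C: 100% = DMSO vehicle control viability.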

IC50 (second compound 0.0316 µM): > 0.316 µM
IC50 (second compound 0.1 µM): > 0.316 µM
IC50 (second compound 0.316 µM): > 0.316 µM
IC50 (second compound 1 µM): > 0.316 µM
IC50 (second compound 3.16 µM): < 0.000999 µM
IC50 (second compound 10 µM): < 0.000999 µM
Compound: CCc1c2c(nc3ccc(O)cc13)-c1cc3c(c(=O)n1C2)COC(=O)[C@]3(O)CC + Cc1cnc(CNC(=O)c2c(=O)c3ccc(N4CCCN(C)CC4)nc3n3c2sc2ccccc23)cn1
viability, T/C (second compound 0.0316 µM, first compound 0.000999 µM): 121%
viability, T/C (second compound 0.0316 µM, first compound 0.00316 µM): 57.5%
viability, T/C (second compound 0.0316 µM, first compound 0.00999 µM): 81.9%
viability, T/C [1]: 67.6%
viability, T/C (second compound 0.0316 µM, first compound 0.0999 µM): 74.8%
viability, T/C [2]: 64.7%
viability, T/C (second compound 0.1 µM, first compound 0.000999 µM): 67.5%
viability, T/C (second compound 0.1 µM, first compound 0.00316 µM): 105%
viability, T/C (second compound 0.1 µM, first compound 0.00999 µM): 89.3%
viability, T/C [3]: 55.3%
viability, T/C (second compound 0.1 µM, first compound 0.0999 µM): 61.1%
viability, T/C [4]: 48.2%
viability, T/C (second compound 0.316 µM, first compound 0.000999 µM): 95.1%
viability, T/C (second compound 0.316 µM, first compound 0.00316 µM): 94.8%
viability, T/C (second compound 0.316 µM, first compound 0.00999 µM): 66.2%
viability, T/C [5]: 67.2%
viability, T/C (second compound 0.316 µM, first compound 0.0999 µM): 65%
viability, T/C [6]: 69.1%
viability, T/C (second compound 1 µM, first compound 0.000999 µM): 66.6%
viability, T/C (second compound 1 µM, first compound 0.00316 µM): 42.9%
viability, T/C (second compound 1 µM, first compound 0.00999 µM): 72.2%
viability, T/C [7]: 55%
viability, T/C (second compound 1 µM, first compound 0.0999 µM): 75%
viability, T/C [8]: 80.4%
viability, T/C (second compound 3.16 µM, first compound 0.000999 µM): 35.9%
viability, T/C (second compound 3.16 µM, first compound 0.00316 µM): 48.5%
viability, T/C (second compound 3.16 µM, first compound 0.00999 µM): 47.8%
viability, T/C [9]: 47.6%
viability, T/C (second compound 3.16 µM, first compound 0.0999 µM): 52.8%
viability, T/C [10]: 55%
viability, T/C (second compound 10 µM, first compound 0.000999 µM): 42.9%
viability, T/C (second compound 10 µM, first compound 0.00316 µM): 38%
viability, T/C (second compound 10 µM, first compound 0.00999 µM): 62.9%
viability, T/C [11]: 47%
viability, T/C (second compound 10 µM, first compound 0.0999 µM): 50.3%
viability, T/C [12]: 52.1%

IC50 (second compound 0.0316 µM): 6.31 µM
IC50 (second compound 0.1 µM): 3.16 µM
IC50 (second compound 0.316 µM): 3.2 µM
IC50 (second compound 1 µM): 0.235 µM
IC50 (second compound 3.16 µM): < 0.0316 µM
IC50 (second compound 10 µM): < 0.0316 µM
Compound: CC1COCCN1c1cc(C2(O)CC3CCC(C2)O3)c2cnn(-c3ccn[nH]3)c2n1 (stereo unspecified) + Cc1cnc(CNC(=O)c2c(=O)c3ccc(N4CCCN(C)CC4)nc3n3c2sc2ccccc23)cn1
viability, T/C [1]: 64.5%
viability, T/C [13]: 77.8%
viability, T/C [2]: 92.2%
viability, T/C [14]: 77.6%
viability, T/C [15]: 82%
viability, T/C [16]: 30.6%
viability, T/C [3]: 106%
viability, T/C [17]: 85.8%
viability, T/C [4]: 96.3%
viability, T/C [18]: 44.8%
viability, T/C [19]: 61.3%
viability, T/C [20]: 57.7%
viability, T/C [5]: 65.6%
viability, T/C [21]: 60%
viability, T/C [6]: 51.7%
viability, T/C [22]: 62.7%
viability, T/C [23]: 49.2%
viability, T/C [24]: 29.9%
viability, T/C [7]: 59.3%
viability, T/C [25]: 60.8%
viability, T/C [8]: 41.6%
viability, T/C [26]: 43.4%
viability, T/C [27]: 50.5%
viability, T/C [28]: 39.6%
viability, T/C [9]: 45.7%
viability, T/C [29]: 38.9%
viability, T/C [10]: 44.9%
viability, T/C [30]: 42.4%
viability, T/C [31]: 26.8%
viability, T/C [32]: 23.8%
viability, T/C [11]: 37.7%
viability, T/C [33]: 44%
viability, T/C [12]: 37.7%
viability, T/C [34]: 39.2%
viability, T/C [35]: 34.1%
viability, T/C [36]: 23.7%

Compound: CC(=O)O[C@H]1C(=O)[C@@]2(C)[C@H]([C@H](OC(=O)c3ccccc3)[C@]3(O)C[C@H](OC(=O)[C@H](O)[C@@H](NC(=O)c4ccccc4)c4ccccc4)C(C)=C1C3(C)C)[C@]1(OC(C)=O)CO[C@@H]1C[C@@H]2O + Cc1[nH]c2ccc(F)cc2c1-c1nc2c3cccnc3c3ncccc3c2[nH]1
IC50 (second compound 0.0316 µM): > 10 µM
IC50 (second compound 0.1 µM): > 10 µM
IC50 (second compound 0.316 µM): > 10 µM
IC50 (second compound 1 µM): > 10 µM
IC50 (second compound 3.16 µM): > 10 µM
IC50 (second compound 10 µM): > 10 µM
viability, T/C [1]: 80.1%
viability, T/C [13]: 136%
viability, T/C [2]: 103%
viability, T/C [14]: 82.4%
viability, T/C [15]: 71.2%
viability, T/C [16]: 79.7%
viability, T/C [3]: 87.8%
viability, T/C [17]: 97.5%
viability, T/C [4]: 109%
viability, T/C [18]: 98.9%
viability, T/C [19]: 97%
viability, T/C [20]: 116%
viability, T/C [5]: 91.1%
viability, T/C [21]: 78%
viability, T/C [6]: 70.8%
viability, T/C [22]: 72.3%
viability, T/C [23]: 108%
viability, T/C [24]: 126%
viability, T/C [7]: 116%
viability, T/C [25]: 62.5%
viability, T/C [8]: 58.5%
viability, T/C [26]: 89.3%
viability, T/C [27]: 69.4%
viability, T/C [28]: 109%
viability, T/C [9]: 67.5%
viability, T/C [29]: 77.5%
viability, T/C [10]: 51.1%
viability, T/C [30]: 106%
viability, T/C [31]: 77.8%
viability, T/C [32]: 55.5%
viability, T/C [11]: 54.5%
viability, T/C [33]: 93.7%
viability, T/C [12]: 68.1%
viability, T/C [34]: 74.4%
viability, T/C [35]: 75.5%
viability, T/C [36]: 104%
